Columns and labels:
[1] = test system: ALOMY: black-grass (Alopecurus myosuroides); experiment: Post-emergent Test III, herbicidal activity in wheat and barley; assay type: in vivo; details: for pest or weed control at 35 g/ha: 35 g ai/ha; for pest or weed control at 70 g/ha: 70 g ai/ha; for GR50 ALOMY / GR80 ALOMY: probit analysis, 21 days after application; for GR50 ALOMY: dose for growth reduction of 50 percent; for GR80 ALOMY: dose for growth reduction of 80 percent
In short: (§1)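 GR20, GR50, GR80 and GR90 come from probit analysis of visual injury scores (0 = none, 100 = complete kill) taken 21 d after treatment. Foliar application was by track sprayer delivering 187 L/ha at five rates, from high down to 1/16×, onto greenhouse plants at the 2–3 leaf stage, with solvent-blank controls.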

LAMSS = experiment: as above; assay type: in vivo; details: for pest or weed control at 35 g/ha: 35 g ai/ha; for pest or weed control at 70 g/ha: 70 g ai/ha; for GR50 LAMSS / GR80 LAMSS: probit analysis, 21 days after application; for GR50 LAMSS: dose for growth reduction of 50 percent; for GR80 LAMSS: dose for growth reduction of 80 percent
In short: as §1

APESV = experiment: Pre-emergent Test III, preemergent activity in wheat and barley; assay type: in vivo, Apera spica-venti
Procedure: Pre-emergent Test III. Seeds of test species were planted into square plastic pots (10 cm wide) containing sandy loam soil. After planting, all pots were sub-irrigated 16 h prior to compound application. A weighed amount, determined by the highest rate to be tested, of each test compound was placed in a 25 mL glass vial and was dissolved in 4 mL of a 97:3 v/v mixture of acetone and DMSO to obtain concentrated stock solutions. […] The concentrated stock solutions obtained were diluted with 20 mL of an aqueous mixture containing water and 0.02% w/v (weight/volume) of Triton X-155 to obtain spray solutions containing the highest application rates. Additional application rates were obtained by serial dilution of 12 mL of the high rate solution into a solution containing 2 mL of 97:3 v/v mixture of acetone and DMSO and 10 mL of an aqueous mixture containing water and 0.02% w/v (weight/volume) of Triton X-155 to obtain 1⁄2×, 1⁄4×, 1⁄8× and 1/16× rates of the high rate. Compound requirements are based upon a 12 mL application volume at a rate of 187 liters per hectare (L/ha). Formulated compounds were applied to the soil surface with an overhead Mandel track sprayer equipped with […] nozzles calibrated to deliver 187 L/ha over an application area of 0.503 square meters. Control pots were sprayed in the same manner with the solvent blank. The treated pots and control pots were placed in a greenhouse as described above and watered through surface irrigation. After 21 d, the condition of the test pots as compared with that of the untreated pots was determined visually and scored on a scale of 0 to 100 percent where 0 corresponds to no herbicidal effect and 100 corresponds to plant death or lack of emergence from the soil. By applying the well-accepted probit analysis as described by J. Berkson in Journal of the American Statistical Society, 48, 565 (1953) and by D. Finney in “Probit Analysis” Cambridge University Press (1952), the above data can be used to calculate GR20, GR50, GR80 and GR90 values, which are defined as growth reduction factors that correspond to the effective dose of herbicide required to kill or control 20 percent, 50 percent, 80 percent or 90 percent, respectively, of a target plant.

[2] = Alopecurus myosuroides, post-emergence, 504 h, read-out: Visual Growth Reduction (%) 21 Days After Application ALOMY
[3] = post-emergence, 504 h, read-out: Visual Growth Reduction (%) 21 Days After Application LAMSS

Row | SMILES | pest or weed control at 35 g/ha [1, 2] | pest or weed control at 70 g/ha [1, 2] | pest or weed control at 140 g/ha ([1]; Alopecurus myosuroides, post-emergence, 504 h, 140 g ai/ha, read-out: Visual Growth Reduction (%) 21 Days After Application ALOMY) | GR50 ALOMY [1] | GR80 ALOMY [1] | pest or weed control at 35 g/ha (LAMSS; [3]) | pest or weed control at 70 g/ha (LAMSS; [3]) | pest or weed control at 140 g/ha (LAMSS; post-emergence, 504 h, 140 g ai/ha, read-out: Visual Growth Reduction (%) 21 Days After Application LAMSS) | GR50 LAMSS (LAMSS) | GR80 LAMSS (LAMSS) | Visual Growth Reduction (%) 21 Days After Application, APESV (APESV; 35 g ai/ha) | Visual Growth Reduction (%) 21 Days After Application, APESV (APESV; 70 g ai/ha) | GR50 APESV (APESV; 21 days after application, dose to kill or control 50%, probit analysis) | GR80 APESV (APESV; 21 days after application, dose to kill or control 80%, probit analysis)
1 | COC(=O)c1nc(-c2ccc(Cl)c(F)c2)c(F)c(N)c1Cl [Compound 216] | 45 to 59% | 60 to 74% | 75 to 84% | 54 g ai/ha | >140 g ai/ha | 95 to 100% | 95 to 100% | 95 to 100% | 1 g ai/ha | 1 g ai/ha |  |  |  | 
2 | Nc1c(F)c(-c2ccc(C(F)(F)F)c(F)c2F)nc(C(=O)O)c1Cl [Compound 167] | 30 to 44% | 60 to 74% |  | 57 g ai/ha | 119 g ai/ha | 95 to 100% | 95 to 100% |  | 1 g ai/ha | 1 g ai/ha |  |  |  | 
3 | COC(=O)c1nc(-c2ccc(Br)c(F)c2)c(F)c(N)c1Cl [Compound 49] |  |  |  |  |  |  |  |  |  |  | F (30-44) | E (45-59) | >70 g ai/ha | >70 g ai/ha
